Assay results taken from PMC8632988, “Inhibition of SYK and cSrc kinases can protect bone and cartilage in preclinical models of osteoarthritis and rheumatoid arthritis” (Scientific Reports, 2021).

How the values were obtained:
Experiment in all cases: Kinase selectivity profile assay
Format in all cases: biochemical
Aurora C = target: T1, Aurora C (Homo sapiens, UniProt Q9UQB9); settings: 500 nM; relative to DMSO; read-out: Residual enzymatic activity
T1 construct: purchased Reaction Biology Corporation
How it was run: (§1)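 Radiometric kinase assay run by a standard protocol. Unbound phosphate was removed by washing filters in phosphoric acid, and product radioactivity gave percent remaining kinase activity versus DMSO vehicle reactions. Run in duplicate.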

BRSK2 = target: T2, BRSK2 (Homo sapiens, UniProt Q8IWQ3); settings: 500 nM; relative to DMSO; read-out: Residual enzymatic activity
T2 construct: purchased Reaction Biology Corporation
T2 sequence (Q8IWQ3 whole entry): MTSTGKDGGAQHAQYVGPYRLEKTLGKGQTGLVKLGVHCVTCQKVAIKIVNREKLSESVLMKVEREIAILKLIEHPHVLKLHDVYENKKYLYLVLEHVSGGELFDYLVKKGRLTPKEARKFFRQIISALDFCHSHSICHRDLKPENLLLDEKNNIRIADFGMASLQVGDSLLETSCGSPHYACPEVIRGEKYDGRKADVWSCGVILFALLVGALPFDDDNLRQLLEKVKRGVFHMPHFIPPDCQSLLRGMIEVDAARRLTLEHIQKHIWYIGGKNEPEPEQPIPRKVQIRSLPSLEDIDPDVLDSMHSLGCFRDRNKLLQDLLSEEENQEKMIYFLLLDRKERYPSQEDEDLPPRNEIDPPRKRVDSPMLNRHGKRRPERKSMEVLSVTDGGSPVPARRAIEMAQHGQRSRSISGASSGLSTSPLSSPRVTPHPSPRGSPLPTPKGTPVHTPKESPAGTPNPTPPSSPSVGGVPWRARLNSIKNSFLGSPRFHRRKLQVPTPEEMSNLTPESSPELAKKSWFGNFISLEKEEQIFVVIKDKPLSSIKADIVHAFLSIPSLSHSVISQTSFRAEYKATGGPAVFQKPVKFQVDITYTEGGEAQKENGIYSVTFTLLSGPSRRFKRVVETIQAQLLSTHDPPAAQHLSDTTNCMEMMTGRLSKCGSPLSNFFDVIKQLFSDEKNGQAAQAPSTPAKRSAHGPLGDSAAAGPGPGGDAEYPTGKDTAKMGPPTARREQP
How it was run: as §1

CK1d = target: T3, CK1d (Homo sapiens, UniProt P48730); settings: 500 nM; relative to DMSO; read-out: Residual enzymatic activity
T3 construct: purchased Reaction Biology Corporation
How it was run: as §1

EPHA6 = target: T4, EPHA6 (Homo sapiens, UniProt Q9UF33); settings: 500 nM, relative to DMSO; for remaining activity at 0.5 µM: read-out: Residual enzymatic activity
T4 construct: purchased Reaction Biology Corporation
T4 sequence (Q9UF33 23-1036): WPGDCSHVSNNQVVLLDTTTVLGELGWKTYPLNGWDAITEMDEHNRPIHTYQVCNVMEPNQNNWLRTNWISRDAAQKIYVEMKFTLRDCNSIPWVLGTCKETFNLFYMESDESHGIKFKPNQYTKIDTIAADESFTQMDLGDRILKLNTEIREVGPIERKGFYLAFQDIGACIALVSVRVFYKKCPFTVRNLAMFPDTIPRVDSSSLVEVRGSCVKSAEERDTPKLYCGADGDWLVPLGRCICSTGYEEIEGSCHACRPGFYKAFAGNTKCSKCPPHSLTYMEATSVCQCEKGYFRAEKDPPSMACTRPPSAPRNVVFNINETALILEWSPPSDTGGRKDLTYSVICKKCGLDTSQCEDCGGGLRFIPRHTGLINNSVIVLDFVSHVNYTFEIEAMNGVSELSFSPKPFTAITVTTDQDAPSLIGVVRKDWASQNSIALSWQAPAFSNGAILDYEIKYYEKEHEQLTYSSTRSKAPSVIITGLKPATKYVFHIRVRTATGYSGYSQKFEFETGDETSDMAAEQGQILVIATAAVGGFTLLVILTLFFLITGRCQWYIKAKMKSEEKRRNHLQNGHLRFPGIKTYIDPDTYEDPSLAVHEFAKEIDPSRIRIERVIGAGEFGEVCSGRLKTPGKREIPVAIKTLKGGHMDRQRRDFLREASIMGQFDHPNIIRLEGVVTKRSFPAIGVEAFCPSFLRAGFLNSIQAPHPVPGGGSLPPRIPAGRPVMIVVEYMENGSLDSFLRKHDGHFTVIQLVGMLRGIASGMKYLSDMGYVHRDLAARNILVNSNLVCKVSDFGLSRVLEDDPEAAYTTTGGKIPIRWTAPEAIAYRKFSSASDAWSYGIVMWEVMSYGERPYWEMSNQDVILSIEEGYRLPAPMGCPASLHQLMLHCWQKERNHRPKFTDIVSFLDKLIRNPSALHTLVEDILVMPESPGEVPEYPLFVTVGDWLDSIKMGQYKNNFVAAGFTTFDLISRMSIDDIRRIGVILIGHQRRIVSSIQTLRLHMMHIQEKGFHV
How it was run: as §1

ERK1 = target: T5, ERK1 (Homo sapiens, UniProt P27361); settings: 500 nM; relative to DMSO; read-out: Residual enzymatic activity
T5 construct: purchased Reaction Biology Corporation
How it was run: as §1

FAK/PTK2 = target: T6, FAK/PTK2 (Homo sapiens, UniProt Q05397); settings: 500 nM; relative to DMSO; read-out: Residual enzymatic activity
T6 construct: purchased Reaction Biology Corporation
How it was run: as §1

FRK/PTK5 = target: T7, FRK/PTK5 (Homo sapiens, UniProt P42685); settings: 500 nM, relative to DMSO; for remaining activity at 0.5 µM: read-out: Residual enzymatic activity
T7 construct: purchased Reaction Biology Corporation
T7 sequence (P42685 whole entry): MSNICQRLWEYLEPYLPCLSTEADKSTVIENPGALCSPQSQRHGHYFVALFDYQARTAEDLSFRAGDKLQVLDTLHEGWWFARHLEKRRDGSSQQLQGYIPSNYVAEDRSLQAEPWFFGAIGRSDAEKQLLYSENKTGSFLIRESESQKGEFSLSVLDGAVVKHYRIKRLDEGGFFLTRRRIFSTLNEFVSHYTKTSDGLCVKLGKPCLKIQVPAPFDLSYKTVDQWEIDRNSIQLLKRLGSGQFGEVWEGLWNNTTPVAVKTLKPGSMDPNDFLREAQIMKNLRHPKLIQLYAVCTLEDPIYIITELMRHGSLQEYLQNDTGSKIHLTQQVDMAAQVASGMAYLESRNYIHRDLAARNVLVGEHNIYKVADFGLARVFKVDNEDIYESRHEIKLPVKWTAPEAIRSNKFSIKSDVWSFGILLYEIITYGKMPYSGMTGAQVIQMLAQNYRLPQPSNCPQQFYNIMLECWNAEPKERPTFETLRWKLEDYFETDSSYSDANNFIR
How it was run: as §1

GRK2 = target: T8, GRK2 (Homo sapiens, UniProt P25098); settings: 500 nM; relative to DMSO; read-out: Residual enzymatic activity
T8 construct: purchased Reaction Biology Corporation
How it was run: as §1

GRK4 = target: T9, GRK4 (Homo sapiens, UniProt P32298); settings: 500 nM; relative to DMSO; read-out: Residual enzymatic activity
T9 construct: purchased Reaction Biology Corporation
T9 sequence (P32298 whole entry): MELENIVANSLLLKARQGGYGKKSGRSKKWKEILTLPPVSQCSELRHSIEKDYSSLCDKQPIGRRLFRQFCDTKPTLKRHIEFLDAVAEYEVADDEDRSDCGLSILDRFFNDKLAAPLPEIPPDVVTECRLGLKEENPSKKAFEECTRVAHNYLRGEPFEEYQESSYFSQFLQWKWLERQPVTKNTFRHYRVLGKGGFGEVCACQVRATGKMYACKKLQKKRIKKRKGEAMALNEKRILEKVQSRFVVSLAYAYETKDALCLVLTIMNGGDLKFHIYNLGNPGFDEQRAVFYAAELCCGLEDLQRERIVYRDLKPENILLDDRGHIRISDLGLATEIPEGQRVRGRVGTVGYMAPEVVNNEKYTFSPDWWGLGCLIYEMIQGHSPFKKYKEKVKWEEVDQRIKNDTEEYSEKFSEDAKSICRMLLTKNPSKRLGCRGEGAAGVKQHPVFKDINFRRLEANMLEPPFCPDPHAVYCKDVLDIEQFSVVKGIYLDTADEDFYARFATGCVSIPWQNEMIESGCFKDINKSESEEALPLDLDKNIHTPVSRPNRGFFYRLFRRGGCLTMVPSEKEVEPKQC
How it was run: as §1

IRR/INSRR = target: T10, IRR/INSRR (Homo sapiens, UniProt P14616); settings: 500 nM; relative to DMSO; read-out: Residual enzymatic activity
T10 construct: purchased Reaction Biology Corporation
How it was run: as §1

LKB1 = target: T11, LKB1 (Homo sapiens, UniProt Q15831); settings: 500 nM; relative to DMSO; read-out: Residual enzymatic activity
T11 construct: purchased Reaction Biology Corporation
How it was run: as §1

MEKK1 = target: T12, MEKK1 (Homo sapiens, UniProt Q13233); settings: 500 nM; relative to DMSO; read-out: Residual enzymatic activity
T12 construct: purchased Reaction Biology Corporation
How it was run: as §1

MLCK2/MYLK2 = target: T13, MLCK2/MYLK2 (Homo sapiens, UniProt Q9H1R3); settings: 500 nM; relative to DMSO; read-out: Residual enzymatic activity
T13 construct: purchased Reaction Biology Corporation
How it was run: as §1

MNK2 = target: T14, MNK2 (Homo sapiens, UniProt Q9HBH9); settings: 500 nM; relative to DMSO; read-out: Residual enzymatic activity
T14 construct: purchased Reaction Biology Corporation
T14 sequence (Q9HBH9 whole entry): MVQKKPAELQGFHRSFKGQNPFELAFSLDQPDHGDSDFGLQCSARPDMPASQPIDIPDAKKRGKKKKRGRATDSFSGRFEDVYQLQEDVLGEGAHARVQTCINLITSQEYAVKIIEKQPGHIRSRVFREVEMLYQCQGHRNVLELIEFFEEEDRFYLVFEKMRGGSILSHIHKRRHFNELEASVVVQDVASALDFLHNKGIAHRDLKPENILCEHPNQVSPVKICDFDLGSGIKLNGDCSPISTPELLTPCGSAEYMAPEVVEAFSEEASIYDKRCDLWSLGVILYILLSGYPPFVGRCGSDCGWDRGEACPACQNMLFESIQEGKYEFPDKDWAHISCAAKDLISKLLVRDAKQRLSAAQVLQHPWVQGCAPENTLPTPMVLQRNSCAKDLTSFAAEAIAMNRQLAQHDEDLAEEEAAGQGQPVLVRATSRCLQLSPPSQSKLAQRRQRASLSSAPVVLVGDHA
How it was run: as §1

NEK4 = target: T15, NEK4 (Homo sapiens, UniProt P51957); settings: 500 nM; relative to DMSO; read-out: Residual enzymatic activity
T15 construct: purchased Reaction Biology Corporation
How it was run: as §1

P38a/MAPK14 = target: T16, P38a/MAPK14 (Homo sapiens, UniProt Q16539); settings: 500 nM; relative to DMSO; read-out: Residual enzymatic activity
T16 construct: purchased Reaction Biology Corporation
How it was run: as §1

P38b/MAPK11 = target: T17, P38b/MAPK11 (Homo sapiens, UniProt Q15759); settings: 500 nM; relative to DMSO; read-out: Residual enzymatic activity
T17 construct: purchased Reaction Biology Corporation
How it was run: as §1

PHKg2 = target: T18, PHKg2 (Homo sapiens, UniProt P15735); settings: 500 nM; relative to DMSO; read-out: Residual enzymatic activity
T18 construct: purchased Reaction Biology Corporation
T18 sequence (P15735 whole entry): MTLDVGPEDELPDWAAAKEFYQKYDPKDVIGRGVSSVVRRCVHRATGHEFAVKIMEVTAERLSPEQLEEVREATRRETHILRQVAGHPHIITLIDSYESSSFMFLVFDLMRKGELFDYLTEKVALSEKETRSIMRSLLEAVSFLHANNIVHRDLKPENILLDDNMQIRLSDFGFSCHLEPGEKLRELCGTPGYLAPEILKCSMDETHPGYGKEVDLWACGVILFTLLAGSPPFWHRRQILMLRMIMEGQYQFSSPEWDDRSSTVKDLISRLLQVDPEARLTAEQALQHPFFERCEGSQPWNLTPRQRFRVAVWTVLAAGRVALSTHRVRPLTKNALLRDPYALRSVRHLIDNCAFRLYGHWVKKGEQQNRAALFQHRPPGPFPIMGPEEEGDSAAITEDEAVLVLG
How it was run: as §1

PKCnu/PRKD3 = target: T19, PKCnu/PRKD3 (Homo sapiens, UniProt O94806); settings: 500 nM; relative to DMSO; read-out: Residual enzymatic activity
T19 construct: purchased Reaction Biology Corporation
How it was run: as §1

SIK3 = target: T20, SIK3 (Homo sapiens, UniProt Q9Y2K2); settings: 500 nM; relative to DMSO; read-out: Residual enzymatic activity
T20 construct: purchased Reaction Biology Corporation
How it was run: as §1

SNARK/NUAK2 = target: T21, SNARK/NUAK2 (Homo sapiens, UniProt Q9H093); settings: 500 nM; relative to DMSO; read-out: Residual enzymatic activity
T21 construct: purchased Reaction Biology Corporation
How it was run: as §1

SRPK2 = target: T22, SRPK2 (Homo sapiens, UniProt P78362); settings: 500 nM; relative to DMSO; read-out: Residual enzymatic activity
T22 construct: purchased Reaction Biology Corporation
How it was run: as §1

TAOK2/TAO1 = target: T23, TAOK2/TAO1 (Homo sapiens, UniProt Q9UL54); settings: 500 nM; relative to DMSO; read-out: Residual enzymatic activity
T23 construct: purchased Reaction Biology Corporation
T23 sequence (Q9UL54 whole entry): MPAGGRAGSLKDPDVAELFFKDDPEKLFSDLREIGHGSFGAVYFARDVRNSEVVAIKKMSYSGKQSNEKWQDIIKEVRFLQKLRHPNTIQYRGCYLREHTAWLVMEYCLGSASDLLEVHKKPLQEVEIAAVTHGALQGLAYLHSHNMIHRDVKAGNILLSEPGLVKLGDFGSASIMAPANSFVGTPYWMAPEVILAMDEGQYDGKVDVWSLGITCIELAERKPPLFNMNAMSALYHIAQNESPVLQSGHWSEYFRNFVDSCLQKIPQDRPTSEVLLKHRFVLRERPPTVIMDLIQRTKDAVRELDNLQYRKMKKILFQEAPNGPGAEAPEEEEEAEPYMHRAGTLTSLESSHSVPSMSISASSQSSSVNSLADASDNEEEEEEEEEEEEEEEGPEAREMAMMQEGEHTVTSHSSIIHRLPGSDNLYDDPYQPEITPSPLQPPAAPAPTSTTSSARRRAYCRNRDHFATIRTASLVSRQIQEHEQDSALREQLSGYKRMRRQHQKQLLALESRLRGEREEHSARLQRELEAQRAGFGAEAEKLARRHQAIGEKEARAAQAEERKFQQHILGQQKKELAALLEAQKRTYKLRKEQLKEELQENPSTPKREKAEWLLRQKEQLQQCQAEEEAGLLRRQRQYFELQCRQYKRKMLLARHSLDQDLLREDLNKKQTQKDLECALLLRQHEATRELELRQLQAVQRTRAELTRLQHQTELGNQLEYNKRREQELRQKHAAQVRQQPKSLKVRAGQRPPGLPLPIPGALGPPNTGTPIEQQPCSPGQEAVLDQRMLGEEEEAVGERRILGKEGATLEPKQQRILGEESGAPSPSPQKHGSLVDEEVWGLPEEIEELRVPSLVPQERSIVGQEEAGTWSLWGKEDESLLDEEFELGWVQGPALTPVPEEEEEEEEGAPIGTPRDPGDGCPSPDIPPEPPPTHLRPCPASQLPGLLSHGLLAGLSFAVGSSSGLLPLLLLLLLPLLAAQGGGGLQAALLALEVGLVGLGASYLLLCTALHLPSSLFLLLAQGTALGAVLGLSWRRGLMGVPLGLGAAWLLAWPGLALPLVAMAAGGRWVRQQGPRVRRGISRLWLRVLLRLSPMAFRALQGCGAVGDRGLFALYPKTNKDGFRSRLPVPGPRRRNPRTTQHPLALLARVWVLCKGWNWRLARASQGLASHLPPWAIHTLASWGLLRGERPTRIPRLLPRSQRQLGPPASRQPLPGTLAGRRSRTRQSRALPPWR
How it was run: as §1

TYK2 = target: T24, TYK2 (Homo sapiens, UniProt P29597); settings: 500 nM; relative to DMSO; read-out: Residual enzymatic activity
T24 construct: purchased Reaction Biology Corporation
How it was run: as §1

ULK2 = target: T25, ULK2 (Homo sapiens, UniProt Q8IYT8); settings: 500 nM; relative to DMSO; read-out: Residual enzymatic activity
T25 construct: purchased Reaction Biology Corporation
T25 sequence (Q8IYT8 whole entry): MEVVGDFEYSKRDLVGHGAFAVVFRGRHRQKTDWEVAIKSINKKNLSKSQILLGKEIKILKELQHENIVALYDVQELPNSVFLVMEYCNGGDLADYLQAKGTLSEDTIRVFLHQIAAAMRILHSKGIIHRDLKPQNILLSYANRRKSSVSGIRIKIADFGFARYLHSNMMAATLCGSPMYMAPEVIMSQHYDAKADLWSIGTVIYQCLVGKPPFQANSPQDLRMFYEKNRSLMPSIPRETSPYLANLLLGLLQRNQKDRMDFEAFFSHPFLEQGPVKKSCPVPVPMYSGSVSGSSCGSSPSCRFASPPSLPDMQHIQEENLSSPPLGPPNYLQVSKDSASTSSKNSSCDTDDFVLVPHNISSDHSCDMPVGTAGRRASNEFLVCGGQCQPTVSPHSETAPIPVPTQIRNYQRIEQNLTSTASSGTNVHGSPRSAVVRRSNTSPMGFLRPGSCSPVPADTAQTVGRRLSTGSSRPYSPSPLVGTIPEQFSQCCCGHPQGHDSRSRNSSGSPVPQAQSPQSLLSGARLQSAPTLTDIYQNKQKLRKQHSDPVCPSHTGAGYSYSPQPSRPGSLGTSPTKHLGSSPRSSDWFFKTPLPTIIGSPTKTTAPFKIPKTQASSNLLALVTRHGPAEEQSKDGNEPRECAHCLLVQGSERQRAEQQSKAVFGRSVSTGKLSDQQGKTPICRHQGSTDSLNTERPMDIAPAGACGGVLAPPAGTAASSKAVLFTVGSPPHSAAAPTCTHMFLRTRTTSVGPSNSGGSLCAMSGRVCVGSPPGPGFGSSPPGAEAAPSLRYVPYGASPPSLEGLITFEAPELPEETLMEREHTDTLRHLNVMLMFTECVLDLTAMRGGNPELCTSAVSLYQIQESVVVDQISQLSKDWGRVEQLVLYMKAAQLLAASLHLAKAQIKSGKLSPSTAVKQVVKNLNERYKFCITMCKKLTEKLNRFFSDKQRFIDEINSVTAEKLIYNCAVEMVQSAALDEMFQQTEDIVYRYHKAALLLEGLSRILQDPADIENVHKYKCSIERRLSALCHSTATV
How it was run: as §1

WEE1 = target: T26, WEE1 (Homo sapiens, UniProt P30291); settings: 500 nM; relative to DMSO; read-out: Residual enzymatic activity
T26 construct: purchased Reaction Biology Corporation
How it was run: as §1

p70S6Kb/RPS6KB2 = target: T27, p70S6Kb/RPS6KB2 (Homo sapiens, UniProt Q9UBS0); settings: 500 nM; relative to DMSO; read-out: Residual enzymatic activity
T27 construct: purchased Reaction Biology Corporation
How it was run: as §1

Compound	remaining activity at 0.5 µM (Aurora C)	remaining activity at 0.5 µM (BRSK2)	remaining activity at 0.5 µM (CK1d)	remaining activity at 0.5 µM (EPHA6)	remaining activity at 0.5 µM (ERK1)	remaining activity at 0.5 µM (FAK/PTK2)	remaining activity at 0.5 µM (FRK/PTK5)	remaining activity at 0.5 µM (GRK2)	remaining activity at 0.5 µM (GRK4)	remaining activity at 0.5 µM (IRR/INSRR)	remaining activity at 0.5 µM (LKB1)	remaining activity at 0.5 µM (MEKK1)	remaining activity at 0.5 µM (MLCK2/MYLK2)	remaining activity at 0.5 µM (MNK2)	remaining activity at 0.5 µM (NEK4)	remaining activity at 0.5 µM (P38a/MAPK14)	remaining activity at 0.5 µM (P38b/MAPK11)	remaining activity at 0.5 µM (PHKg2)	remaining activity at 0.5 µM (PKCnu/PRKD3)	remaining activity at 0.5 µM (SIK3)	further results
COc1cc(Nc2ncnc(Nc3cc4c(cn3)NC(=O)C(C)(C)O4)n2)cc(OC)c1OC [MT-SYK-03]	89.2%	92.5%	86.5%	> 54%	119%	87.4%	> 54%	101%	99.7%	89%	101%	105%	105%	78.6%	109%	110%	103%	102%	99.9%	83.4%	Residual enzymatic activity (EPHA6): 73.9%; Residual enzymatic activity (FRK/PTK5): 56.5%; remaining activity at 0.5 µM (SNARK/NUAK2): 102%; remaining activity at 0.5 µM (SRPK2): 104%; remaining activity at 0.5 µM (TAOK2/TAO1): 105%; remaining activity at 0.5 µM (TYK2): 71.2%; remaining activity at 0.5 µM (ULK2): 111%; remaining activity at 0.5 µM (WEE1): 108%; remaining activity at 0.5 µM (p70S6Kb/RPS6KB2): 91.4%
COc1cc(Nc2ncc(F)c(Nc3ccc4c(n3)NC(=O)C(C)(C)O4)n2)cc(OC)c1OC [R406, reference compound]	42.1%	84.2%	78.7%	24.9%	97.4%	29.7%	35%	97.2%	96.8%	73.6%	69.3%	100%	89.2%	37.9%	52.1%	99.9%	101%	93.4%	72.8%	75.4%	remaining activity at 0.5 µM (SNARK/NUAK2): 59.7%; remaining activity at 0.5 µM (SRPK2): 104%; remaining activity at 0.5 µM (TAOK2/TAO1): 47.4%; remaining activity at 0.5 µM (TYK2): 10.5%; remaining activity at 0.5 µM (ULK2): 37.9%; remaining activity at 0.5 µM (WEE1): 105%; remaining activity at 0.5 µM (p70S6Kb/RPS6KB2): 74.6%
